# According to patent US8759481B2, “Peptide vaccines for cancers expressing tumor-associated antigens” (Oncotherapy Science, Inc., priority 2007, dated 2014):
# “Also recorded” adds a separate entry of the source. Ends that are not written are not given here.
# Assays:
# Assay type in all cases: cell-based, human
# [1] = system: peptide-pulsed A24-LCL cells; test: CTL line establishment, IFN-gamma ELISA; conditions: HLA-A24 peptides; vs target without peptide pulse
# Procedure, shortened: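 Peptide-pulsed A24-LCL or T2 cells (1×10^4/well) served as stimulators for responder cells from 48-well cultures or limiting-dilution CTL clones. Positive wells scored by IFN-gamma ELISPOT; CTL line establishment from positive wells confirmed by IFN-gamma ELISA; lines expanded with anti-CD3 (40 ng/ml), IL-2 and MMC-inactivated B-LCL feeders.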
# [2] = system: peptide-pulsed A24-LCL cells; test: IFN-gamma ELISPOT assay (positive wells); conditions: HLA-A24 peptides; as compared to the control
# Procedure, shortened: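 PBMC-derived DCs from HLA-A*2402 and/or A*0201 donors, pulsed with 20 micro g/ml peptide plus 3 micro g/ml beta 2-microglobulin, stimulated autologous CD8+ T cells three times (days 0, 7, 14). On day 21, responders were tested against peptide-pulsed A24-LCL or T2 cells by IFN-gamma ELISPOT. Values are reported as positive wells/wells tested; CTL lines confirmed by ELISA.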
# [3] = system: peptide-pulsed A24-LCL cells; test: CTL clones by limiting dilution, specific CTL activity; conditions: HLA-A24 peptides; vs target without peptide pulse
# Method: The dilutions were made to have 0.3, 1, and 3 CTLs/well in 96 round-bottomed micro titer plate (Nalge Nunc International). CTLs were cultured with 7×10^4 cells/well of 2 kinds of human B-lymphoblastoid cell lines, 30 ng/ml of anti-CD3 antibody, and 125 U/ml of IL-2 in total of 150 micro 1/well of AIM-V containing 5% AS. 50 micro 1/well of IL-2 was added to the medium 10 days later so that IL-2 became 125 U/ml in the final concentration. CTL activity of CTLs was tested on the 14th day, and CTL clones were expanded using the same method above.
# (§1) Briefly, peptide-pulsed A24-LCL or T2 cell (1×10^4/well) was prepared as stimulator cells. Cultured Cells in 48 wells or CTL clones after limiting dilution were used as responder cells. IFN-gamma ELISPOT assay and ELISA assay were performed under manufacture procedure.
# [4] = system: COS7 transfected with full length KIF20A gene and HLA-A*2402; test: Specific CTL activity against transfected target cells; conditions: CTL line or clone raised by the peptide, vs control transfectants
# Method: as §1
# (§2) The cDNA encoding an open reading frame of target genes or HLA-A02 or HLA-A24 was amplified by PCR. The PCR-amplified product was cloned into pcDNA3.1 myc-His vector (Invitrogen). The plasmids were transfected into the target cells, HLA-A02 and HLA-A24-null normal human cell line COS7 or 293T using lipofectamine (Invitrogen) according to the manufacturer's recommended procedures. Alternatively, the plasmid contained the target genes were transfected into A24-LCL by electroporation using GenePulserII (Biorad). Briefly, 2.5×10^6 A24-LCL cells were pulsed with 10 mcg prasmid at 140V and 1000 micro F. After 2 days from transfection, the transfected cells were treated with Cell dissociation solution and used as the target cells for CTL activity assay.
# The established CTL line raised against these peptides were examined for their ability to recognize the target cells expressing KIF20A and HLA-A*2402. […]
# [5] = system: peptide-pulsed T2 cells; test: CTL line establishment, IFN-gamma ELISA; conditions: HLA-A02 peptides; vs target without peptide pulse
# Procedure, shortened: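 CTLs expanded with MMC-inactivated B-lymphoblastoid lines, 40 ng/ml anti-CD3 and IL-2 (120 IU/ml day 1, then 30 IU/ml on days 5, 8, 11). Peptide-pulsed T2 or A24-LCL stimulators (1×10^4/well) incubated with cultured wells or limiting-dilution clones as responders; IFN-gamma detected by ELISPOT (positive wells) and ELISA (established CTL lines).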
# [6] = system: peptide-pulsed T2 cells; test: IFN-gamma ELISPOT assay (positive wells); conditions: HLA-A02 peptides; as compared to the control
# Procedure, shortened: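 CD8+ T cells from HLA-A*2402 and/or HLA-A*0201 donors were stimulated 1:20 with autologous monocyte-derived DCs pulsed with 20 µg/ml peptide plus β2-microglobulin, in IL-7, with IL-2 added, restimulated on days 7 and 14. On day 21, IFN-γ ELISPOT against peptide-pulsed T2 or A24-LCL cells (1×10^4/well) scored wells as positive, with CTL lines confirmed by ELISA.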
# [7] = system: COS7 transfected with full length HIG2 gene and HLA-A*0201; test: Specific CTL activity against transfected target cells; conditions: CTL line raised by the peptide; vs control transfectants; listed as HIG2-A02-9-15
# Method: as §1, §2
# (§3) The established CTL line raised against these peptides were examined for their ability to recognize the target cells expressing HIG2 and HLA-A*0201. […] 293T or COS7 transfected with full length ECT2 but not HLA-A*0201 and 293T or COS7 transfected with HLA-A*0201 but not full length ECT2 (or replaced other gene e.g. FoxP3 or TTK) were prepared as controls.
# [8] = system: COS7, Hek293 and 293T transfected with full length URLC10 gene and HLA-A*0201; test: as above; conditions: vs control transfectants; listed as URLC10-A02-10-211
# Method: as §1, §2
# The established CTL line raised against these peptides were examined for their ability to recognize the target cells endogenously expressing URLC10 and HLA-A*0201. […]
# [9] = system: target cells pulsed with the peptide; test: 51Cr release cytotoxicity assay
# Method: (§4) Cytotoxic activity was evaluated by a four-hour ^51Cr release assay. The target cells were pulsed with a 20 micro g/mL concentration of peptide overnight. The target cells were labeled with 100 micro Ci of Na2^51CrO4 at 37 degrees C. for one hour, and then washed three times with RPMI1640. The target cells (1×10^4/100 micro L) and 100 micro L of effector cells at various numbers with a total volume of 200 micro L were placed into a round-bottomed 96-well microtiter plate (Corning), and cultured at 37 degrees C. in a CO2 incubator for four hours. After culturing, 100 micro L of the supernatant was collected from each well, and measured the radioactivity using a gamma counter. Spontaneous release was the radioactivity from the target cells with medium in the absence of effector cells, and maximum release was the radioactivity from the target cells with 1 M HCl.
# (§5) The Percentage of specific cytotoxicity was determined by calculating as following formula: % Specific lysis=[(experimental release−spontaneous release)/(maximum release−spontaneous release)]×100. Results Enhanced CDH3, EPHA4, ECT2, HIG2, INHBB, KIF20A, KNTC2, TTK and URLC10 Expression in Cancers
# [10] = system: PK59 cancer cell line; test: 51Cr release cytotoxicity assay; conditions: PK59 expressing KIF20A but not HLA-A24
# Method: as §4, §5
# (§6) Furthermore, Cytotoxic activity was examined by cytotoxicity assay according to the protocols set forth in the “Materials and Methods” section above.
# [11] = system: PK45P cancer cell line; test: 51Cr release cytotoxicity assay; conditions: PK45P expressing both KIF20A and HLA-A24; listed as KIF20A-A24-9-305
# Method: as §4, §5, §6
# [12] = system: 293T transfected with full length HIG2 gene and HLA-A*0201; test: Specific CTL activity against transfected target cells; conditions: CTL line raised by the peptide; vs control transfectants; listed as HIG2-A02-9-8
# Method: as §1, §2, §3
# [13] = system: HEK293 transfected with full length KNTC2 gene and HLA-A*2402; test: as above; conditions: vs control transfectants; listed as KNTC2-A24-10-452
# Method: as §1, §2
# The established CTL line raised against these peptides were examined for their ability to recognize the target cells expressing KNTC2 and HLA-A*2402. […] HEK293 transfected with full length KNTC2 but not HLA-A*2402, HEK293 transfected with HLA-A*2402 but not full length KNTC2 and HEK293 transfected with HLA-A*2402 and pulsed with KNTC2-9-309 were prepared as controls.
# [14] = system: TE6 cancer cell line; test: 51Cr release cytotoxicity assay; conditions: TE6 endogenously expressing ECT2 and HLA-A24; listed as ECT2-A24-9-515
# Method: as §4, §5, §6
# [15] = system: TE5 cancer cell line; test: 51Cr release cytotoxicity assay; conditions: TE5 expressing only ECT2
# Method: as §4, §5, §6
# [16] = system: Caki-1 cancer cell line; test: 51Cr release cytotoxicity assay; conditions: Caki-1 expressing INHBB but not HLA-A02
# Method: as §4, §5, §6
# [17] = system: MIAPaca2 cancer cell line; test: 51Cr release cytotoxicity assay
# Method: as §4, §5
# Furthermore, Cytotoxic activity was performed by cytotoxicity assay according to the protocols set forth in the “Materials and Methods” section above. […]
substance,measurement,setting,value
SEQ ID NO: 194: HLA-A*2402 binding 10-mer peptide derived from KIF20A (KVYLRVRPLL),"Establishment of CTL line, specific CTL activity against the peptide-pulsed target determined by ELISA",[1],CTL lines were established
same,IFN-gamma production by IFN-gamma ELISPOT assay,[2],potent IFN-gamma production
same,CTL activities of CTL clones against the peptide-pulsed target,[3],potent and specific CTL activities
same,Specific CTL activity against COS7 transfected with both KIF20A and HLA-A24,[4]; listed as KIF20A-A24-10-66,highest specific CTL activity
TLLSIFVRV [SEQ ID NO: 116],"Establishment of CTL line, specific CTL activity against the peptide-pulsed target determined by ELISA",[5],CTL lines were established
same,IFN-gamma production by IFN-gamma ELISPOT assay,[6],potent IFN-gamma production
same,Specific CTL activity against COS7 transfected with both HIG2 and HLA-A02,[7],highest specific CTL activity; also recorded: high specific CTL activity
SEQ ID NO: 178: HLA-A*2402 binding 9-mer peptide derived from KIF20A (IFSIRILHL),"Establishment of CTL line, specific CTL activity against the peptide-pulsed target determined by ELISA",[1],CTL lines were established
same,IFN-gamma production by IFN-gamma ELISPOT assay,[2],potent IFN-gamma production
same,Specific CTL activity against COS7 transfected with both KIF20A and HLA-A24,[4]; listed as KIF20A-A24-9-383,highest specific CTL activity; also recorded: high specific CTL activity
SEQ ID NO: 288: HLA-A*0201 binding 10-mer peptide derived from URLC10 (LLLASIAAGL),"Specific CTL activity against COS7, Hek293 and 293T transfected with both URLC10 and HLA-A02",[8],highest specific CTL activity; also recorded: high specific CTL activity
same,"Establishment of CTL line, specific CTL activity against the peptide-pulsed target determined by ELISA",[5],"CTL line and clones, were established"
same,IFN-gamma production by IFN-gamma ELISPOT assay,[6],potent IFN-gamma production
"GLNPLTSYV [SEQ ID NO: 376, GLNPLTSYV]",Cytotoxic activity of CTL line against target cells pulsed with the peptide (Cr-release assay),[9],very potent specific cytotoxic activity
FFEIYNELL [SEQ ID NO: 174],Cytotoxic activity against PK59 (Cr-release assay),[10],did not show significant specific cytotoxic activity
same,Cytotoxic activity against PK45P (Cr-release assay),[11],remarkably high cytotoxic effect; also recorded: very potent cytotoxic activity
YLLGVVLTL [SEQ ID NO: 114],"Establishment of CTL line, specific CTL activity against the peptide-pulsed target determined by ELISA",[5],CTL lines were established
same,IFN-gamma production by IFN-gamma ELISPOT assay,[6],potent IFN-gamma production
same,Specific CTL activity against 293T transfected with both HIG2 and HLA-A02,[12],highest specific CTL activity; also recorded: high specific CTL activity
SEQ ID NO: 214: HLA-A*2402 binding 10-mer peptide derived from KNTC2 (KYRAQVYVPL),Specific CTL activity against HEK293 transfected with both KNTC2 and HLA-A24,[13],highest specific CTL activity
same,"Establishment of CTL line, specific CTL activity against the peptide-pulsed target determined by ELISA",[1],CTL lines were established
same,IFN-gamma production by IFN-gamma ELISPOT assay,[2],potent IFN-gamma production
same,CTL activities of CTL clones against the peptide-pulsed target,[3],potent and specific CTL activities
"TYPPFVNFF [SEQ ID NO: 80, TYPPFVNFF]",Cytotoxic activity against TE6 (Cr-release assay),[14],remarkably high cytotoxic effect; also recorded: very potent cytotoxic activity
same,Cytotoxic activity against TE5 (Cr-release assay),[15],did not demonstrate the cytotoxic activity
LYLKLLPYV [SEQ ID NO: 395],Cytotoxic activity against Caki-1 (Cr-release assay),[16],did not show significant specific cytotoxic activity
same,Cytotoxic activity against MIAPaca2 (Cr-release assay),"[17]; INHBB-positive, compared to CAki-2, listed as INHBB-A24-9-180",remarkably high cytotoxic effect; also recorded: high specific cytotoxic activity
SFFEIYNELL [SEQ ID NO: 186],Cytotoxic activity against PK59 (Cr-release assay),[10],did not show significant specific cytotoxic activity
same,Cytotoxic activity against MIAPaca2 (Cr-release assay),"[17]; Miapaca2 expressing both KIF20A and HLA-A24, listed as KIF20A-A24-10-304",remarkably high cytotoxic effect; also recorded: very potent specific cytotoxic activity
"KLNTEIRDV [SEQ ID NO: 379, KLNTEIRDV]",Cytotoxic activity of CTL line against target cells pulsed with the peptide (Cr-release assay),[9],very potent specific cytotoxic activity
